Measured values from patent publication US20230167073A1 (Teijin Pharma Limited, priority 2020, published 2023).

Molecular target: T1, Human TRPC6 (Homo sapiens, UniProt Q9Y210)
T1 construct: expressed in transfected cells
T1 sequence (Q9Y210 1-931): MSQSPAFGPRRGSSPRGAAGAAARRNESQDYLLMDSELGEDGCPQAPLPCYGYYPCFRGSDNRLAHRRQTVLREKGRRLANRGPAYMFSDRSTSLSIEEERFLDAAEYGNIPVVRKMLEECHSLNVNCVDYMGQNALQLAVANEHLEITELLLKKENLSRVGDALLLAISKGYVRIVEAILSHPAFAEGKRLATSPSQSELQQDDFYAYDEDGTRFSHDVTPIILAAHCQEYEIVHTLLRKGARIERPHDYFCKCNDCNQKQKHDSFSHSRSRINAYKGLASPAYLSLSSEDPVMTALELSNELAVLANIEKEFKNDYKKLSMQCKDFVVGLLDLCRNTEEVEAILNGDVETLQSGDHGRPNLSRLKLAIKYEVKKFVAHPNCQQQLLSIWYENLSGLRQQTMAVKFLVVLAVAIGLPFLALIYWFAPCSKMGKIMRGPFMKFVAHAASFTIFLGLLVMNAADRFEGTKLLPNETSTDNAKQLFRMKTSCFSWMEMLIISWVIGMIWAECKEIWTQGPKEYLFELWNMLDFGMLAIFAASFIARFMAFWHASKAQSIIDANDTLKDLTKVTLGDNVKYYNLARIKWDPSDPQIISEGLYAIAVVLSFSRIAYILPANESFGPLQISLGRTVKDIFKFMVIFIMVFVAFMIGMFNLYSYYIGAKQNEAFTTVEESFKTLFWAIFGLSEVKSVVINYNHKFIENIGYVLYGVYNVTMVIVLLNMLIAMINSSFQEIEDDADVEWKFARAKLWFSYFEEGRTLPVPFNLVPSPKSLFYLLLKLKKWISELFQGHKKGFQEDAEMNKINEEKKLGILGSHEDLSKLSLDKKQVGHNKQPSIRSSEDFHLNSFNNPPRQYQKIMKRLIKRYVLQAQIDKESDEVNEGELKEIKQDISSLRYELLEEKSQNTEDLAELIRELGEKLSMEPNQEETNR
Assay: Evaluation of TRPC6 channel inhibitory activity (1), FLIPR Calcium 5 Assay Kit, OAG stimulation (Compound Nos. 1-1293)
Assay type: cell-based
Conditions: Human TRPC6 stably-expressing cells, OAG 30 μM, FLIPR Calcium 5 Assay Kit; read-out: Inhibitory activity (pIC50 class) (converted)
Outline: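 TRPC6 (human) stable cells, 24 h culture; Ca5 no-wash dye + probenecid 30 min; cpd 20 min; OAG 30 μM final; ΔF (pre-cpd min to post-OAG max); 0%/100% = no cpd / no cpd + no OAG; 4PL → pIC50, binned +/++/+++.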

Row | IC50 [nM] | SMILES
1 | < 10 | Cc1cc(Oc2cc(C#N)ccc2-c2ccc([C@H](O)CN)cn2)cc(N2CCCCC2)n1 [compound 500, 4-[5-[(1S)-2-amino-1-hydroxyethyl]pyridin-2-yl]-3-(2-methyl-6-piperidin-1-ylpyridin-4-yl)oxybenzonitrile]
2 | < 10 | Cc1cc(Oc2cc(C#N)ccc2-c2ncc([C@H](O)CN)cn2)cc(N2CCCCC2)n1 [compound 501, 4-[5-[(1S)-2-amino-1-hydroxyethyl]pyrimidin-2-yl]-3-(2-methyl-6-piperidin-1-ylpyridin-4-yl)oxybenzonitrile]
3 | < 10 | Cc1cc(Oc2cc(C#N)ccc2-c2ccc([C@H](O)CN)cn2)cc(N2CC(F)C2)n1 [compound 502, 4-[5-[(1S)-2-amino-1-hydroxyethyl]pyridin-2-yl]-3-[2-(3-fluoroazetidin-1-yl)-6-methylpyridin-4-yl]oxybenzonitrile]
4 | < 10 | Cc1cc(Oc2cc(C#N)ccc2-c2ncc(CCN)cn2)cc(N2CC(F)C2)n1 [compound 503, 4-[5-(2-aminoethyl)pyrimidin-2-yl]-3-[2-(3-fluoroazetidin-1-yl)-6-methylpyridin-4-yl]oxybenzonitrile]
5 | > 1000 | Cn1nc(C2CC2)cc1Oc1cc(C#N)ccc1-c1ccc(C(N)C(N)=O)cn1 (centres unmarked) [compound 504, 2-amino-2-[6-[4-cyano-2-(5-cyclopropyl-2-methylpyrazol-3-yl)oxyphenyl]pyridin-3-yl]acetamide]
6 | < 10 | Cc1cc(Oc2cc(C#N)ccc2-c2ccc([C@H](O)CN)cn2)cc(N2C[C@@H](C)O[C@@H](C)C2)n1 [compound 505, 4-[5-[(1S)-2-amino-1-hydroxyethyl]pyridin-2-yl]-3-[2-[(2S,6R)-2,6-dimethylmorpholin-4-yl]-6-methylpyridin-4-yl]oxybenzonitrile]
7 | < 10 | Cc1cc(Oc2cc(C#N)ccc2-c2ncc([C@H](O)CN)cn2)cc(N2C[C@@H](C)O[C@@H](C)C2)n1 [compound 506, 4-[5-[(1S)-2-amino-1-hydroxyethyl]pyrimidin-2-yl]-3-[2-[(2S,6R)-2,6-dimethylmorpholin-4-yl]-6-methylpyridin-4-yl]oxybenzonitrile]
8 | < 10 | Cc1nc(Oc2cc(C#N)ccc2-c2ccc([C@H](O)CN)cn2)cc(N2CCCC2)n1 [compound 507, 4-[5-[(1S)-2-amino-1-hydroxyethyl]pyridin-2-yl]-3-(2-methyl-6-pyrrolidin-1-ylpyrimidin-4-yl)oxybenzonitrile]
9 | < 10 | Cc1nc(Oc2cc(C#N)ccc2-c2ncc([C@H](O)CN)cn2)cc(N2CCCC2)n1 [compound 508, 4-[5-[(1S)-2-amino-1-hydroxyethyl]pyrimidin-2-yl]-3-(2-methyl-6-pyrrolidin-1-ylpyrimidin-4-yl)oxybenzonitrile]
10 | < 10 | Cc1nc(Oc2cc(C#N)ccc2-c2ccc([C@H](O)CN)cn2)cc(N2CCCCC2)n1 [compound 509, 4-[5-[(1S)-2-amino-1-hydroxyethyl]pyridin-2-yl]-3-(2-methyl-6-piperidin-1-ylpyrimidin-4-yl)oxybenzonitrile]
11 | < 10 | Cc1nc(Oc2cc(C#N)ccc2-c2ncc([C@H](O)CN)cn2)cc(N2CCCCC2)n1 [compound 510, 4-[5-[(1S)-2-amino-1-hydroxyethyl]pyrimidin-2-yl]-3-(2-methyl-6-piperidin-1-ylpyrimidin-4-yl)oxybenzonitrile]
12 | > 1000 | Cn1nc(C2CC2)cc1Oc1cc(C#N)ccc1-c1ccc(C(N)c2nnn[nH]2)cn1 (centres unmarked) [compound 511, 4-[5-[amino(1H-tetrazol-5-yl)methyl]pyridin-2-yl]-3-(5-cyclopropyl-2-methylpyrazol-3-yl)oxybenzonitrile]
13 | 10 to 1000 | Cn1nc(-c2ncccn2)cc1Oc1cc(C#N)ccc1-c1ccc(CCN)cn1 [compound 512, 4-[5-(2-aminoethyl)pyridin-2-yl]-3-(2-methyl-5-pyrimidin-2-ylpyrazol-3-yl)oxybenzonitrile]
14 | 10 to 1000 | COc1cccnc1-c1cc(Oc2cc(C#N)ccc2-c2ccc([C@H](O)CN)cn2)cc(C)n1 [compound 513, 4-[5-[(1S)-2-amino-1-hydroxyethyl]pyridin-2-yl]-3-[2-(3-methoxypyridin-2-yl)-6-methylpyridin-4-yl]oxybenzonitrile]
15 | 10 to 1000 | Cn1nc(C2CCOCC2)cc1Oc1cc(C#N)ccc1-c1ccc(C(N)CO)cn1 (centres unmarked) [compound 514, 4-[5-(1-amino-2-hydroxyethyl)pyridin-2-yl]-3-[2-methyl-5-(oxan-4-yl)pyrazol-3-yl]oxybenzonitrile]
16 | 10 to 1000 | Cn1nc(C2CC2)cc1Oc1cc(C#N)ccc1-c1cccn2c(CN)nnc12 [compound 515, 4-[3-(aminomethyl)-[1,2,4]triazolo[4,3-a]pyridin-8-yl]-3-(5-cyclopropyl-2-methylpyrazol-3-yl)oxybenzonitrile]

More lines, now with the values behind:

Row | SMILES | IC50 [nM]
17 | Cn1nc(C2CC2)cc1Oc1cc(C#N)ccc1-c1ccc(C(N)C(=O)N2CCCCC2)cn1 (centres unmarked) [compound 486, 4-[5-(1-amino-2-oxo-2-piperidin-1-ylethyl)pyridin-2-yl]-3-(5-cyclopropyl-2-methylpyrazol-3-yl)oxybenzonitrile] | > 1000
18 | CCN(CC)C(=O)C(N)c1ccc(-c2ccc(C#N)cc2Oc2cc(C3CC3)nn2C)nc1 (centres unmarked) [compound 488, 2-amino-2-[6-[4-cyano-2-(5-cyclopropyl-2-methylpyrazol-3-yl)oxyphenyl]pyridin-3-yl]-N,N-diethylacetamide] | > 1000
19 | CN(C)C(=O)C(N)c1ccc(-c2ccc(C#N)cc2Oc2cc(C3CC3)nn2C)nc1 (centres unmarked) [compound 489, 2-amino-2-[6-[4-cyano-2-(5-cyclopropyl-2-methylpyrazol-3-yl)oxyphenyl]pyridin-3-yl]-N,N-dimethylacetamide] | > 1000
20 | CC(C)NC(=O)C(N)c1ccc(-c2ccc(C#N)cc2Oc2cc(C3CC3)nn2C)nc1 (centres unmarked) [compound 490, 2-amino-2-[6-[4-cyano-2-(5-cyclopropyl-2-methylpyrazol-3-yl)oxyphenyl]pyridin-3-yl]-N-propan-2-ylacetamide] | > 1000
21 | CNC(=O)C(N)c1ccc(-c2ccc(C#N)cc2Oc2cc(C3CC3)nn2C)nc1 (centres unmarked) [compound 491, 2-amino-2-[6-[4-cyano-2-(5-cyclopropyl-2-methylpyrazol-3-yl)oxyphenyl]pyridin-3-yl]-N-methylacetamide] | 10 to 1000
22 | COCCOc1cc(Oc2cc(C#N)ccc2-c2ncc(CCN)cn2)cc(C)n1 [compound 492, 4-[5-(2-aminoethyl)pyrimidin-2-yl]-3-[2-(2-methoxyethoxy)-6-methylpyridin-4-yl]oxybenzonitrile] | 10 to 1000
23 | Cn1nc(C2CC2)cc1Oc1cc(C#N)ccc1-c1ccc(CN)n2ccnc12 [compound 493, 4-[5-(aminomethyl)imidazo[1,2-a]pyridin-8-yl]-3-(5-cyclopropyl-2-methylpyrazol-3-yl)oxybenzonitrile] | < 10
24 | Cc1cc(Oc2cc(C#N)ccc2-c2ccc(CN)n3ccnc23)cc(N2CCOCC2)n1 [compound 494, 4-[5-(aminomethyl)imidazo[1,2-a]pyridin-8-yl]-3-(2-methyl-6-morpholin-4-ylpyridin-4-yl)oxybenzonitrile] | 10 to 1000
25 | Cn1nc(C2CCOC2)cc1Oc1cc(C#N)ccc1-c1ncc(CCN)cn1 (centres unmarked) [compound 495, 4-[5-(2-aminoethyl)pyrimidin-2-yl]-3-[2-methyl-5-(oxolan-3-yl)pyrazol-3-yl]oxybenzonitrile] | 10 to 1000
26 | Cn1nc(C2CCOC2)cc1Oc1cc(C#N)ccc1-c1ccc(CCN)cn1 (centres unmarked) [compound 496, 4-[5-(2-aminoethyl)pyridin-2-yl]-3-[2-methyl-5-(oxolan-3-yl)pyrazol-3-yl]oxybenzonitrile] | < 10
27 | Cc1c(CN2CCN[C@@H](C)C2)cc(-c2ccc(C#N)cc2Oc2cc(C3CC3)nn2C)c2nccn12 [compound 497, 3-(5-cyclopropyl-2-methylpyrazol-3-yl)oxy-4-[5-methyl-6-[[(3S)-3-methylpiperazin-1-yl]methyl]imidazo[1,2-a]pyridin-8-yl]benzonitrile] | > 1000
28 | Cc1cc(Oc2cc(C#N)ccc2-c2ccc([C@H](O)CN)cn2)cc(N2CCCC2)n1 [compound 498, 4-[5-[(1S)-2-amino-1-hydroxyethyl]pyridin-2-yl]-3-(2-methyl-6-pyrrolidin-1-ylpyridin-4-yl)oxybenzonitrile] | < 10
29 | Cc1cc(Oc2cc(C#N)ccc2-c2ncc([C@H](O)CN)cn2)cc(N2CCCC2)n1 [compound 499, 4-[5-[(1S)-2-amino-1-hydroxyethyl]pyrimidin-2-yl]-3-(2-methyl-6-pyrrolidin-1-ylpyridin-4-yl)oxybenzonitrile] | < 10
